The values below come from patent publication US20230265151A1, “GIP/GLP1 CO-AGONIST COMPOUNDS” (priority 2020, published 2023).

Like-named read-outs stand apart in the source and are kept apart here. Where only a bound is given, the exact number is not on record here.

What all share (format): cell-based
The target of one assay is T1, hGCGR (Homo sapiens, UniProt P47871).
T1 construct: expressed in transfected cells
Description: Functional cAMP formation (HTRF) in HEK-293 clonal cells expressing hGCGR, 0.1% bovine casein, without or with 1.0% human serum albumin. In short, it runs like this: (§1)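 Cells were stimulated with peptide for 30 min at 37° C, then lysed in buffer carrying cAMP-d2 and anti-cAMP Eu3+-cryptate for a competitive HTRF read after at least 60 min at room temperature. The 665/620 nm ratio was converted to nM cAMP against a standard curve.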
Background: cAMP levels reflect the balance of adenylyl cyclase and phosphodiesterase activity.

A further assay has as its target T2, hGIPR (Homo sapiens, UniProt P48546).
T2 construct: expressed in transfected cells
T2 sequence (P48546 22-466): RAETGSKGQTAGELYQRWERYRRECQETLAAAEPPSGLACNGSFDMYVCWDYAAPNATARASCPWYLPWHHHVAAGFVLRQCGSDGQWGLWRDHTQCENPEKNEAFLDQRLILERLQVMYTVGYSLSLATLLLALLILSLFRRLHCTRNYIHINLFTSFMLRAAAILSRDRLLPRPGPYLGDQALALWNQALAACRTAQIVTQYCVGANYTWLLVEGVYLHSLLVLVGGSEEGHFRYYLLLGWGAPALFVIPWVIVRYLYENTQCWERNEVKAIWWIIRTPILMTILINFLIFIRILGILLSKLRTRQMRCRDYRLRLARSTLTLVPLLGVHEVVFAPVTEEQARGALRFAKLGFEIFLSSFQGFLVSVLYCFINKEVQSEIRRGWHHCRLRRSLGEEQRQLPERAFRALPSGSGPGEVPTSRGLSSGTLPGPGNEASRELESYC
Description: Functional cAMP formation (HTRF) in HEK-293 clonal cells expressing hGIPR, 0.1% bovine casein, without or with 1.0% human serum albumin. In short, it runs like this: as §1

The next assay concerns the target hGLP-1R (Homo sapiens, UniProt P43220). Description: Functional cAMP formation (HTRF) in HEK-293 clonal cells expressing hGLP-1R, 0.1% bovine casein, without or with 1.0% human serum albumin. More on the design: expressed in transfected cells. Particulars: for EC50: hGLP-1R EC50, nM (SEM, n), geometric mean; for Emax: percent of maximal response to GLP-1(7-36)NH2. In short, it runs like this:
as §1

The mark [1] stands for this setting: hGCGR EC50, nM (SEM, n), cAMP, incubated at 37° C., 0.1% bovine casein (no human serum albumin), geometric mean.
[2] abbreviates: HEK293, read-out: hGIPR Emax, % ± SEM, percent of maximal response to GIP(1-42)NH2, 37° C., 0.1% bovine casein, arithmetic mean.

hGLP-1R, sequence (P43220 24-463): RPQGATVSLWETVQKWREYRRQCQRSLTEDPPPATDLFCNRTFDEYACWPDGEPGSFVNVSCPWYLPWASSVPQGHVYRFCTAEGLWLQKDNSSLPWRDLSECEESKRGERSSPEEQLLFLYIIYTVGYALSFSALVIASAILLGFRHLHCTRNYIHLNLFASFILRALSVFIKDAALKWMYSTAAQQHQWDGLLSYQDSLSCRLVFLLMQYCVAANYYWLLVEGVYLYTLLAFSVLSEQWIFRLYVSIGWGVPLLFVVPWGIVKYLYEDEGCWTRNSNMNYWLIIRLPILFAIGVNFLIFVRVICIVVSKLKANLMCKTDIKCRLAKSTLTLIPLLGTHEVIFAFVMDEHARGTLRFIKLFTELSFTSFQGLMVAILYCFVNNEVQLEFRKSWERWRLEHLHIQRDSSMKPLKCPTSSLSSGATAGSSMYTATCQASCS
T1 sequence (P47871 26-477): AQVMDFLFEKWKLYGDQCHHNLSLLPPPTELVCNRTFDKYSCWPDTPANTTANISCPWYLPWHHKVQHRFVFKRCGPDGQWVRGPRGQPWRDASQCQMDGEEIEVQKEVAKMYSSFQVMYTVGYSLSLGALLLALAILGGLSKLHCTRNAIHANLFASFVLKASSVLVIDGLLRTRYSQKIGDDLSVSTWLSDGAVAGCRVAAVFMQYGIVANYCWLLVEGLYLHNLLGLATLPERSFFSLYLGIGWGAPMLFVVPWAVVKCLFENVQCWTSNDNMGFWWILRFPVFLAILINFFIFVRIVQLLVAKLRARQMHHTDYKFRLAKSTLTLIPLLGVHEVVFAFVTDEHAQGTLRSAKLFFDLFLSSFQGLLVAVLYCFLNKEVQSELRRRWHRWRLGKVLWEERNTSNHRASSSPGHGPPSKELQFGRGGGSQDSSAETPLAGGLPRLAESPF

In general, EC50 refers to the concentration giving half of the maximal effect. A word on the Emax: it is the maximal effect, on the per cent scale that the assay sets. `CC[C@H](C)[C@H](NC(=O)[C@H](CC(C)C)NC(=O)[C@](C)(Cc1ccccc1)NC(=O)[C@H](CCCCNC(=O)COCCOCCNC(=O)COCCOCCNC(=O)CC[C@H](NC(=O)CCCCCCCCCCCCC(=O)O)C(=O)O)NC(=O)[C@@H](NC(=O)[C@](C)(Cc1ccccc1)NC(=O)[C@H](CCC(=O)O)NC(=O)C(C)(C)NC(=O)[C@H](CCC(N)=O)NC(=O)[C@H](C)NC(=O)[C@H](CCCCNC(=O)COCCOCCNC(=O)COCCOCCNC(=O)CC[C@H](NC(=O)CCCCCCCCCCCCC(=O)O)C(=O)O)NC(=O)[C@H](CCCN)NC(=O)[C@H](CC(=O)O)NC(=O)[C@H](CC(C)C)NC(=O)[C@](C)(CC(C)C)NC(=O)[C@@H](NC(=O)C(C)(C)NC(=O)[C@H](Cc1ccncc1)NC(=O)[C@H](CC(=O)O)NC(=O)[C@H](CO)NC(=O)[C@@H](NC(=O)[C@](C)(Cc1ccccc1F)NC(=O)[C@@H](NC(=O)CNC(=O)[C@H](CCC(=O)O)NC(=O)C(C)(C)NC(=O)[C@@H](N)Cc1ccc(O)cc1)[C@@H](C)O)[C@@H](C)O)[C@@H](C)CC)[C@@H](C)CC)C(=O)N[C@@H](CCC(=O)O)C(=O)NCC(=O)NCC(=O)N1CCC[C@H]1C(=O)N[C@@H](CO)C(=O)N[C@@H](CO)C(=O)NCC(=O)N[C@@H](C)C(=O)N1CCC[C@H]1C(=O)N1CCC[C@H]1C(=O)N1CCC[C@H]1C(=O)N[C@@H](CO)C(N)=O` [Example 121]: the EC50 at hGCGR (setting [1]) is more than 9950 nM; on hGIPR (hGIPR EC50, nM (SEM, n), cAMP, incubated at 37° C., 0.1% bovine casein (no human serum albumin), geometric mean) it was 0.0271 nM; at hGLP-1R (cAMP, incubated at 37° C., 0.1% bovine casein (no human serum albumin)), 8.95 nM. Moreover, on hGIPR (setting [2]), the Emax was determined as 92.8%.
For `CC[C@H](C)[C@H](NC(=O)[C@H](CC(C)C)NC(=O)[C@](C)(Cc1ccc(O)cc1)NC(=O)[C@@H](CCC(=O)O)NC(=O)[C@@H](NC(=O)[C@H](Cc1ccccc1)NC(=O)[C@H](CCC(=O)O)NC(=O)C(C)(C)NC(=O)[C@H](CCC(N)=O)NC(=O)[C@H](C)NC(=O)[C@H](CCCCNC(=O)COCCOCCNC(=O)COCCOCCNC(=O)CC[C@H](NC(=O)CCCCCCCCCCCCC(=O)O)C(=O)O)NC(=O)[C@H](CCCN)NC(=O)[C@H](CC(=O)O)NC(=O)[C@H](CC(C)C)NC(=O)[C@](C)(CC(C)C)NC(=O)[C@@H](NC(=O)[C@H](CO)NC(=O)[C@H](Cc1ccc(OC)cc1)NC(=O)[C@H](CC(=O)O)NC(=O)[C@H](CO)NC(=O)[C@@H](NC(=O)[C@](C)(Cc1ccccc1F)NC(=O)[C@@H](NC(=O)CNC(=O)[C@H](CCC(=O)O)NC(=O)C(C)(C)NC(=O)[C@@H](N)Cc1ccc(O)cc1)[C@@H](C)O)[C@@H](C)O)[C@@H](C)CC)[C@@H](C)CC)C(=O)N[C@@H](CCC(=O)O)C(=O)NCC(=O)NCC(=O)N1CCC[C@H]1C(=O)N[C@@H](CO)C(=O)N[C@@H](CO)C(=O)NCC(=O)N[C@@H](C)C(=O)N1CCC[C@H]1C(=O)N1CCC[C@H]1C(=O)N1CCC[C@H]1C(=O)N[C@@H](CO)C(=O)N[C@@H](CCCCNC(=O)COCCOCCNC(=O)COCCOCCNC(=O)CC[C@H](NC(=O)CCCCCCCCCCCCC(=O)O)C(=O)O)C(N)=O` [Example 261], the EC50 on hGCGR (0.1% bovine casein and 1.0% human serum albumin, 37° C., geometric mean, read-out: hGCGR EC50, nM (SEM, n)) was more than 9950 nM; on hGCGR (cAMP, 37° C., 0.1% bovine casein (no human serum albumin), geometric mean, read-out: hGCGR EC50, nM (SEM, n)), more than 9950 nM; on hGIPR (cAMP, 37° C., 0.1% bovine casein (no human serum albumin), geometric mean, read-out: hGIPR EC50, nM (SEM, n)) it was 0.025 nM. Also, the Emax on hGIPR (HEK293, 0.1% bovine casein and 1.0% human serum albumin, 37° C., percent of maximal response to GIP(1-42)NH2, read-out: hGIPR Emax, % ± SEM) amounted to 75.7%; on hGIPR (HEK293, cAMP, 37° C., 0.1% bovine casein, percent of maximal response to GIP(1-42)NH2, arithmetic mean, read-out: hGIPR Emax, % ± SEM) it was 105%; at hGLP-1R (HEK293, cAMP, 37° C., 0.1% bovine casein, arithmetic mean, read-out: hGLP-1R Emax, % ± SEM), 97.9%.
In the case of `CC[C@H](C)[C@H](NC(=O)[C@H](CCCN)NC(=O)[C@H](CC(=O)O)NC(=O)[C@H](CC(C)C)NC(=O)[C@](C)(CC(C)C)NC(=O)[C@@H](NC(=O)[C@H](CO)NC(=O)[C@H](Cc1ccncc1)NC(=O)[C@H](CC(=O)O)NC(=O)[C@H](CO)NC(=O)[C@@H](NC(=O)[C@](C)(Cc1ccccc1F)NC(=O)[C@@H](NC(=O)CNC(=O)[C@H](CCC(=O)O)NC(=O)C(C)(C)NC(=O)[C@@H](N)Cc1ccc(O)cc1)[C@@H](C)O)[C@@H](C)O)[C@@H](C)CC)C(=O)N[C@@H](C)C(=O)N[C@@H](CCC(N)=O)C(=O)NC(C)(C)C(=O)N[C@@H](CCCCNC(=O)COCCOCCNC(=O)COCCOCCNC(=O)CCCCCCCCCCCCC(=O)O)C(=O)N[C@@H](Cc1ccccc1)C(=O)N[C@H](C(=O)N[C@@H](CCCCNC(=O)COCCOCCNC(=O)COCCOCCNC(=O)CCCCCCCCCCCCC(=O)O)C(=O)N[C@@](C)(Cc1ccc(O)cc1)C(=O)N[C@@H](CC(C)C)C(=O)N[C@H](C(=O)N[C@@H](CCC(=O)O)C(=O)NCC(=O)NCC(=O)N1CCC[C@H]1C(=O)N[C@@H](CO)C(=O)N[C@@H](CO)C(=O)NCC(=O)N[C@@H](C)C(=O)N1CCC[C@H]1C(=O)N1CCC[C@H]1C(=O)N1CCC[C@H]1C(=O)N[C@@H](CO)C(N)=O)[C@@H](C)CC)[C@@H](C)CC` [Example 191], the EC50 on hGCGR (hGCGR EC50, nM (SEM, n), 0.1% bovine casein and 1.0% human serum albumin, 37° C., geometric mean) is more than 9950 nM; at hGCGR (setting [1]), more than 9950 nM; on hGIPR (hGIPR EC50, nM (SEM, n), 0.1% bovine casein and 1.0% human serum albumin, 37° C., geometric mean) it was 0.866 nM; on hGLP-1R (0.1% bovine casein and 1.0% human serum albumin, 37° C.) it was 13.1 nM. For the same molecule, the Emax was 86.2 ± 5.5% at hGIPR (HEK293, read-out: hGIPR Emax, % ± SEM, 0.1% bovine casein and 1.0% human serum albumin, 37° C., percent of maximal response to GIP(1-42)NH2); 90 ± 3.29% on hGIPR (setting [2]); 105 ± 7.98% on hGLP-1R (HEK293, read-out: hGLP-1R Emax, % ± SEM, 0.1% bovine casein and 1.0% human serum albumin, 37° C.).
Turning to `CC[C@H](C)[C@H](NC(=O)[C@H](CC(C)C)NC(=O)[C@](C)(Cc1ccc(O)cc1)NC(=O)[C@@H](CCC(=O)O)NC(=O)[C@@H](NC(=O)[C@H](Cc1ccccc1)NC(=O)[C@H](CCC(=O)O)NC(=O)C(C)(C)NC(=O)[C@H](CCC(N)=O)NC(=O)[C@H](C)NC(=O)[C@H](CCCCNC(=O)COCCOCCNC(=O)COCCOCCNC(=O)CCCCCCCCCOc1ccc(C(=O)O)cc1)NC(=O)[C@H](CCCN)NC(=O)[C@H](CC(=O)O)NC(=O)[C@H](CC(C)C)NC(=O)[C@](C)(CC(C)C)NC(=O)[C@@H](NC(=O)C(C)(C)NC(=O)[C@H](Cc1ccc(O)cc1)NC(=O)[C@H](CC(=O)O)NC(=O)[C@H](CO)NC(=O)[C@@H](NC(=O)[C@](C)(Cc1ccccc1F)NC(=O)[C@@H](NC(=O)CNC(=O)[C@H](CCC(=O)O)NC(=O)C(C)(C)NC(=O)[C@@H](N)Cc1ccc(O)cc1)[C@@H](C)O)[C@@H](C)O)[C@@H](C)CC)[C@@H](C)CC)C(=O)N[C@@H](CCCCNC(=O)COCCOCCNC(=O)COCCOCCNC(=O)CCCCCCCCCOc1ccc(C(=O)O)cc1)C(=O)NCC(=O)NCC(=O)N1CCC[C@H]1C(=O)N[C@@H](CO)C(=O)N[C@@H](CO)C(=O)NCC(=O)N[C@@H](C)C(=O)N1CCC[C@H]1C(=O)N1CCC[C@H]1C(=O)N1CCC[C@H]1C(=O)N[C@@H](CO)C(N)=O` [Example 396], the EC50 is more than 9950 nM on hGCGR (hGCGR EC50, nM (SEM, n), cAMP, 37° C., 0.1% bovine casein (no human serum albumin), geometric mean); more than 9950 nM at hGCGR (hGCGR EC50, nM (SEM, n), cAMP, 37° C., 0.1% bovine casein and 1.0% human serum albumin, geometric mean (SEM, n)); 0.0113 nM at hGIPR (hGIPR EC50, nM (SEM, n), cAMP, 37° C., 0.1% bovine casein (no human serum albumin), geometric mean); 0.595 nM at hGIPR (hGIPR EC50, nM (SEM, n), cAMP, 37° C., 0.1% bovine casein and 1.0% human serum albumin, geometric mean (SEM, n)); 0.291 nM at hGLP-1R (cAMP, 37° C., 0.1% bovine casein (no human serum albumin)). Besides, the Emax on hGIPR (HEK293, read-out: hGIPR Emax, % ± SEM, cAMP, 37° C., 0.1% bovine casein and 1.0% human serum albumin, percent of maximal response to GIP(1-42)NH2) is 67.1%; on hGIPR (HEK293, read-out: hGIPR Emax, % ± SEM, cAMP, 37° C., 0.1% bovine casein, percent of maximal response to GIP(1-42)NH2, arithmetic mean) it was 96.2%; on hGLP-1R (HEK293, read-out: hGLP-1R Emax, % ± SEM, cAMP, 37° C., 0.1% bovine casein and 1.0% human serum albumin), 94.4%.
